Measurements taken from the NIST ThermoML archive (doi:10.1016/j.jct.2013.05.009).
Numbers after ± are expanded uncertainties.

Key:
[1] = 101 kPa, Liquid; for speed of sound: Sing-around technique in a fixed-path interferometer; for mass density: Vibrating tube method
[2] = refractive index (Na D-line) (dimensionless); conditions: 298.15 K; 101.33 kPa; Liquid; Standard Abbe refractometry
[3] = xn = mol fraction of the nth substance listed; conditions: 101 kPa, Liquid; for mass density: Vibrating tube method; for speed of sound: fixed-path interferometer

CC(C)CC(C)(C)C [2,2,4-trimethylpentane]
[1]
Conditions	mass density [kg/m3]	speed of sound [m/s]
298.15 K	687.68 ± 0.18	1082.7 ± 1.2
308.15 K	679.45 ± 0.18	1041.1 ± 1.2
318.15 K	671.3 ± 0.18	1000.1 ± 1.2
328.15 K	663.17 ± 0.18	959.4 ± 1.2

Conditions	refractive index
[2]	1.38901 ± 0.00072

CC(C)CC(C)(C)C [2,2,4-trimethylpentane] + Cc1ccccc1
[3]
Conditions	mass density, 298.15 K [kg/m3]	mass density, 308.15 K [kg/m3]	mass density, 318.15 K [kg/m3]	mass density, 328.15 K [kg/m3]	speed of sound, 298.15 K [m/s]	speed of sound, 308.15 K [m/s]	speed of sound, 318.15 K [m/s]	speed of sound, 328.15 K [m/s]
x1 = 0.2055	811.87 ± 0.14	802.88 ± 0.15	793.92 ± 0.15	784.96 ± 0.15	1235.8 ± 1.2	1193.6 ± 1.2	1151.9 ± 1.2	1110.8 ± 1.2
x1 = 0.403	772.32 ± 0.15	763.58 ± 0.16	754.88 ± 0.16	746.18 ± 0.16	1184.2 ± 1.2	1142.3 ± 1.2	1100.9 ± 1.2	1060.1 ± 1.2
x1 = 0.6062	738.6 ± 0.16	730.06 ± 0.17	721.58 ± 0.17	713.11 ± 0.17	1142.4 ± 1.2	1100.5 ± 1.2	1059.3 ± 1.2	1018.7 ± 1.2
x1 = 0.8001	711.48 ± 0.17	703.11 ± 0.17	694.81 ± 0.18	686.51 ± 0.18	1110 ± 1.2	1068.4 ± 1.2	1027.2 ± 1.2	986.7 ± 1.2

CCCCO [butan-1-ol]
[1]
Conditions	mass density [kg/m3]	speed of sound [m/s]
298.15 K	805.74 ± 0.15	1239.9 ± 1.2
308.15 K	798.07 ± 0.15	1206.6 ± 1.2
318.15 K	790.38 ± 0.15	1173.4 ± 1.2
328.15 K	782.58 ± 0.15	1140.4 ± 1.2

Conditions	refractive index
[2]	1.39733 ± 0.00072

CCCCO [butan-1-ol] + CC(C)CC(C)(C)C
[3], x2 = 0
Conditions	mass density [kg/m3]	speed of sound [m/s]
298.15 K	805.74 ± 0.15	1239.9 ± 1.2
308.15 K	798.07 ± 0.15	1206.6 ± 1.2
318.15 K	790.38 ± 0.15	1173.4 ± 1.2
328.15 K	782.58 ± 0.15	1140.4 ± 1.2

Cc1ccccc1 [toluene]
[1]
Conditions	mass density [kg/m3]	speed of sound [m/s]
298.15 K	862.19 ± 0.13	1305.4 ± 1.2
308.15 K	852.88 ± 0.14	1262.7 ± 1.2
318.15 K	843.6 ± 0.14	1220.4 ± 1.2
328.15 K	834.29 ± 0.14	1178.6 ± 1.2

Conditions	refractive index
[2]	1.49393 ± 0.00072

Cc1ccccc1 [toluene] + CCCCO
[3], x1 = 1
Conditions	mass density [kg/m3]	speed of sound [m/s]
298.15 K	862.19 ± 0.13	1305.4 ± 1.2
308.15 K	852.88 ± 0.14	1262.7 ± 1.2
318.15 K	843.6 ± 0.14	1220.4 ± 1.2
328.15 K	834.29 ± 0.14	1178.6 ± 1.2
